Values after ≈ are worked out from the molar mass of the structure shown. Like-named read-outs stand apart in the source and are kept apart here.
Assays:
Test in all cases: In vitro antibacterial activity, agar dilution method (clinical isolates)
Type in all cases: cell-based
[1] = tested on: Citrobacter freundii; settings: clinically isolated strains, Gram-negative
Source text: (§1) Bacterial strains for test: All the bacterial strains are clinical isolates and purchased from public organizations. methicillin-sensitive staphylococcus aureus (MS SA), methicillin-resistant staphylococcus aureus (MRSA), methicillin-sensitive staphylococcus epidermidis (MSSE), methicillin-resistant staphylococcus epidermidis (MRSE), streptococcus pyogenes, penicillin-sensitive streptococcus pneumoniae (PSSP), penicillin-resistant streptococcus pneumoniae (PRSP), Escherichia coli, Citrobacter freundii, Enterobacter cloacae, Hemophilus influenza, Klebsiella pneumonia (producing ESBL), Morganella morganii, Proteus mirabilis, Serratia marcescens, and Pseudomonas aeruginosa.
(§2) Drugs to be tested: compounds of the invention prepared in the examples; the chemical names, structural formulae, preparation materials, and preparation methods are provided in the preparation examples of the compounds;
(§3) Meropenem (Meropenem for injection), Ertapenem (Ertapenem for injection), and Doripenem (Doripenem for injection) commercially available
(§4) Experimental method: the agar dilution method, by reference to Methodology of Pharmacological Experiment (XU Shuyun et al, published by the Peoples Medical Publishing House, 1st Edition, August, 1982; 3rd Edition, 5th printing, January 2002, p 1659-1660).

[2] = tested on: Enterobacter cloacae; settings: read-out: MIC90 Enterobacter cloacae
Source text: as §1, §2, §3, §4

[3] = tested on: Escherichia coli; settings: clinically isolated strains, Gram-negative, read-out: MIC90 E. coli
Source text: as §1, §2, §3, §4

[4] = tested on: Hemophilus influenza; settings: clinically isolated strains, Gram-negative, agar dilution; read-out: MIC90 Hemophilus influenza
Source text: as §1, §2, §3, §4

[5] = tested on: Klebsiella pneumonia (producing ESBL); settings: Klebsiella pneumoniae; clinically isolated strains (producing ESBL), Gram-negative, agar dilution; read-out: MIC90 Klebsiella pneumonia
Source text: as §1, §2, §3, §4

[6] = tested on: Morganella morganii; settings: clinically isolated strains, Gram-negative
Source text: as §1, §2, §3, §4

[7] = tested on: Proteus mirabilis; settings: read-out: MIC90 Proteus mirabilis
Source text: as §1, §2, §3, §4

[8] = tested on: Pseudomonas aeruginosa; settings: clinically isolated strains, Gram-negative
Source text: as §1, §2, §3, §4

[9] = tested on: Serratia marcescens; settings: read-out: MIC90 Serratia marcescens
Source text: as §1, §2, §3, §4

[10] = tested on: methicillin-resistant staphylococcus aureus (MRSA); settings: clinically isolated strains, Gram-positive, read-out: MIC90 S. aureus MRSA
Source text: as §1, §2, §3, §4

[11] = tested on: methicillin-resistant staphylococcus epidermidis (MRSE); settings: clinically isolated strains, Gram-positive, read-out: MIC90 S. epidermidis MRSE
Source text: as §1, §2, §3, §4

[12] = tested on: methicillin-sensitive staphylococcus aureus (MSSA); settings: read-out: MIC90 S. aureus MSSA
Source text: as §1, §2, §3, §4

[13] = tested on: methicillin-sensitive staphylococcus epidermidis (MSSE); settings: clinically isolated strains, Gram-positive, agar dilution, read-out: MIC90 S. epidermidis MSSE
Source text: as §1, §2, §3, §4

[14] = tested on: penicillin-resistant streptococcus pneumoniae (PRSP); settings: clinically isolated strains, Gram-positive, read-out: MIC90 S. pneumoniae PRSP
Source text: as §1, §2, §3, §4

[15] = tested on: penicillin-sensitive streptococcus pneumoniae (PSSP); settings: clinically isolated strains, Gram-positive, read-out: MIC90 S. pneumoniae PSSP
Source text: as §1, §2, §3, §4

[16] = tested on: streptococcus pyogenes; settings: clinically isolated strains, Gram-positive, read-out: MIC90 S. pyogenes
Source text: as §1, §2, §3, §4

[17] = clinically isolated strains, Gram-negative, agar dilution
[18] = clinically isolated strains, Gram-positive, agar dilution

Row | SMILES | MIC90 [1] | MIC90 [2] | MIC90 [3] | MIC90 [4] | MIC90 [5] | MIC90 [6] | MIC90 [7, 17] | MIC90 [8] | MIC90 [9, 17] | MIC90 [10] | MIC90 [11] | MIC90 [12, 18] | MIC90 [13] | MIC90 [14] | MIC90 [15] | MIC90 [16] | MIC90 [7] | MIC90 [9] | MIC90 [12] | MIC90 [2, 17]
1 | C[C@@H](O)[C@H]1C(=O)N2C(C(=O)O)=C(SC3CN(S(=O)(=O)NCC(N)=O)C3)[C@H](C)[C@H]12 [Compound 10] | 0.032 µg/mL (≈ 0.0736 µM) | 0.125 µg/mL (≈ 0.288 µM) | 0.008 µg/mL (≈ 0.0184 µM) | 0.125 µg/mL (≈ 0.288 µM) | 0.063 µg/mL (≈ 0.145 µM) | 0.016 µg/mL (≈ 0.0368 µM) | 0.063 µg/mL (≈ 0.145 µM) | 8 µg/mL (≈ 18.4 µM) | 0.063 µg/mL (≈ 0.145 µM) | 8 µg/mL (≈ 18.4 µM) | 16 µg/mL (≈ 36.8 µM) | 0.063 µg/mL (≈ 0.145 µM) | 0.063 µg/mL (≈ 0.145 µM) | 5 µg/mL (≈ 11.5 µM) | 0.008 µg/mL (≈ 0.0184 µM) | 0.008 µg/mL (≈ 0.0184 µM) | – | – | – | –
2 | C[C@@H](O)[C@H]1C(=O)N2C(C(=O)O)=C(SC3CN=CN(S(N)(=O)=O)C3)[C@H](C)[C@H]12 (stereo partly drawn) [Compound 4, (4R,5S,6S)-3-[1(4H)-aminosulfonyl-5,6-dihydropyrimidin-5-yl]-thio-6-[(1R)-1-hydroxyethyl]-4-methyl-7-oxo-1-aza-bicyclo-[3.2.0]hept-2-ene-2-carboxylic acid] | 0.032 µg/mL (≈ 0.0791 µM) | 0.125 µg/mL (≈ 0.309 µM) | 0.032 µg/mL (≈ 0.0791 µM) | 0.125 µg/mL (≈ 0.309 µM) | 0.063 µg/mL (≈ 0.156 µM) | 0.063 µg/mL (≈ 0.156 µM) | – | 32 µg/mL (≈ 79.1 µM) | – | 8 µg/mL (≈ 19.8 µM) | 16 µg/mL (≈ 39.6 µM) | – | 0.063 µg/mL (≈ 0.156 µM) | 1 µg/mL (≈ 2.47 µM) | 0.016 µg/mL (≈ 0.0396 µM) | 0.016 µg/mL (≈ 0.0396 µM) | 0.125 µg/mL (≈ 0.309 µM) | 0.125 µg/mL (≈ 0.309 µM) | 0.125 µg/mL (≈ 0.309 µM) | –
3 | C[C@@H](O)[C@H]1C(=O)N2C(C(=O)O)=C(S[C@@H]3CN[C@H](C(=O)Nc4cccc(C(=O)O)c4)C3)[C@H](C)[C@H]12 [ertapenem, Ertapenem, reference compound] | 0.25 µg/mL (≈ 0.526 µM) | – | 0.25 µg/mL (≈ 0.526 µM) | 1 µg/mL (≈ 2.1 µM) | 1 µg/mL (≈ 2.1 µM) | 0.25 µg/mL (≈ 0.526 µM) | 1 µg/mL (≈ 2.1 µM) | 32 µg/mL (≈ 67.3 µM) | 0.5 µg/mL (≈ 1.05 µM) | > 64 µg/mL | 64 µg/mL (≈ 135 µM) | 0.5 µg/mL (≈ 1.05 µM) | 0.5 µg/mL (≈ 1.05 µM) | 2 µg/mL (≈ 4.21 µM) | 0.063 µg/mL (≈ 0.132 µM) | 0.032 µg/mL (≈ 0.0673 µM) | – | – | – | 2 µg/mL (≈ 4.21 µM)
4 | CCN(CC)S(=O)(=O)N1CC(SC2=C(C(=O)O)N3C(=O)[C@H]([C@@H](C)O)[C@H]3[C@H]2C)C1 [Compound 7, (4R,5S,6S)-3-[1-(N,N-diethylaminosulfonyl)-azetidin-3-yl]thio-6-[(1R)-1-hydroxyethyl]-4-methyl-7-oxo-1-aza-bicyclo-[3.2.0]hept-2-ene-2-carboxylic acid] | 0.016 µg/mL (≈ 0.0369 µM) | 0.125 µg/mL (≈ 0.288 µM) | 0.016 µg/mL (≈ 0.0369 µM) | 0.125 µg/mL (≈ 0.288 µM) | 0.063 µg/mL (≈ 0.145 µM) | 0.063 µg/mL (≈ 0.145 µM) | – | 8 µg/mL (≈ 18.5 µM) | 0.063 µg/mL (≈ 0.145 µM) | 8 µg/mL (≈ 18.5 µM) | 8 µg/mL (≈ 18.5 µM) | 0.063 µg/mL (≈ 0.145 µM) | 0.063 µg/mL (≈ 0.145 µM) | 0.5 µg/mL (≈ 1.15 µM) | 0.008 µg/mL (≈ 0.0185 µM) | 0.004 µg/mL (≈ 0.00923 µM) | 0.125 µg/mL (≈ 0.288 µM) | – | – | –
5 | C[C@@H](O)[C@H]1C(=O)N2C(C(=O)O)=C(SC3CCCN(S(N)(=O)=O)C3)[C@H](C)[C@H]12 (stereo partly drawn) [Compound 3, (4R,5S,6S)-3-[N-aminosulfonyl-piperidin-3-yl]thio-6-[(1R)-1-hydroxyethyl]-4-methyl-7-oxo-1-aza-bicyclo-[3.2.0]hept-2-ene-2-carboxylic acid] | 0.063 µg/mL (≈ 0.155 µM) | – | 0.032 µg/mL (≈ 0.0789 µM) | 0.25 µg/mL (≈ 0.617 µM) | 0.063 µg/mL (≈ 0.155 µM) | 0.032 µg/mL (≈ 0.0789 µM) | 0.125 µg/mL (≈ 0.308 µM) | 16 µg/mL (≈ 39.5 µM) | 0.125 µg/mL (≈ 0.308 µM) | 16 µg/mL (≈ 39.5 µM) | 8 µg/mL (≈ 19.7 µM) | 0.125 µg/mL (≈ 0.308 µM) | 0.125 µg/mL (≈ 0.308 µM) | 0.5 µg/mL (≈ 1.23 µM) | 0.016 µg/mL (≈ 0.0395 µM) | 0.008 µg/mL (≈ 0.0197 µM) | – | – | – | 0.125 µg/mL (≈ 0.308 µM)
